# In patent US20090105278A1, “Selective inhibitors of human corticosteroid syntheses” (Universitat Des Saarlandes, priority 2004, published 2009):
# Counter-ions that a name gives are not always drawn.
# Molecular target: T1, human CYP17 (Homo sapiens, UniProt P05093)
# T1 construct: made in house; host or cells: E. coli pJL17/OR (membrane fraction)
# T1 sequence (P05093 1-508): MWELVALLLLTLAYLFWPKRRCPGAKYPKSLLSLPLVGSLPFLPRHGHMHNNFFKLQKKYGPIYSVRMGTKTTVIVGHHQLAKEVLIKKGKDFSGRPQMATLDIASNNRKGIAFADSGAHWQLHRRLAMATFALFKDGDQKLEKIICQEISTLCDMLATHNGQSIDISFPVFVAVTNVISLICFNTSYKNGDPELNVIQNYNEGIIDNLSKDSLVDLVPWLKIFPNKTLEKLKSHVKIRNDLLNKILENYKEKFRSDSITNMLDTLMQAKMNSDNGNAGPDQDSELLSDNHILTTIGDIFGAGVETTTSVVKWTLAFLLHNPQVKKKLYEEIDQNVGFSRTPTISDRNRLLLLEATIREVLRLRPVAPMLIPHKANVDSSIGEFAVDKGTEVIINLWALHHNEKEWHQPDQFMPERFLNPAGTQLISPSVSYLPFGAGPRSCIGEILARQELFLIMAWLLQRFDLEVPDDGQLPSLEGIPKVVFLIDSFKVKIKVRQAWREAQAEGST
# Assay: Percent inhibition of CYP17 (membrane fraction of E. coli pJL17/OR)
# Assay type: biochemical
# Details: E. coli which expresses human CYP17; 5 mg/ml protein; progesterone substrate 2.5 μM; inhibitor 2.5 μM
# Experimental: The recombinantly altered E. coli strain pJL17/OR, in which human CYP17 and rat NADPH-P450-reductase were coexpressed, was grown and stored according to the method of Ehmer et al. (Ehmer, P. B. et al., J. Steroid Biochem. Mol. Biol. 75: 57-63 (2000)). For isolating the membrane fraction, 5 ml of the bacterial cell suspension with an OD578 of 50 was washed with phosphate buffer (0.05 M; pH 7.4; 1 mM MgCl2; 0.1 mM EDTA and 0.1 mM DTT). The bacteria were removed by centrifugation and resuspended in 10 ml of ice cold TES buffer (0.1 M tris-acetate; pH 7.8; 0.5 mM EDTA; 0.5 M sucrose). Four milligrams of lysozyme in 10 ml of ice cold water was added to obtain a final concentration of 0.2 mg/ml. This was followed by incubation for 30 minutes under continued shaking on ice. The spheroblasts were obtained by a renewed centrifugation step at 12,000 g for 10 min and again resuspended in 3 ml of ice cold phosphate buffer (composition see above, additionally 0.5 mM PMSF).
# After freezing and thawing, the cells were lysed on ice with an ultrasonic disintegrator. The whole cells and the cell debris were centrifuged off at 3000 g for 7 min. The supernatant was again centrifuged at 50,000 g for 20 min at 4° C. A membrane pellet sedimented and was resuspended in 2 ml of phosphate buffer (composition see above) with […] by means of an Ultra-Turrax mixer. […] Aliquots with an approximate protein concentration of 5 mg/ml were stored at −70° C. until use.
# Control incubations were performed in parallel with 5 μl DMSO without urea. The reaction was started by adding 50 μl of a membrane suspension diluted 1 to 5 in phosphate buffer (0.8 to 1 mg of protein per ml). After thoroughly mixing the components, the mixture was incubated at 37° C. for 30 min.
# The steroids were extracted with 1 ml of EtOAc. […] After the centrifugation, 800 μl of the organic phase was removed, placed into a new vessel and evaporated to dryness. The samples were dissolved in 50 μl of a water-methanol mixture (1:1) and analyzed by HPLC. The substrate conversion was calculated from the ratio of the areas of the product peaks (17α-hydroxyprogesterone and 16α-hydroxyprogesterone) to that of the substrate peak. The activity of the inhibitors was calculated from the reduced substrate conversion after the addition of inhibitors in accordance with the following formula: […]
row,Compound,% Inhibition human CYP17 [%]
1,"5-[(Z)-(5-Fluoro-2,3-dihydro-1H-indene-1-ylidene)methyl]-1H-imidazolium oxalate [Compound 47b]",11

# System: not given
# Assay: not given
# Details: not given
row,Compound,melting point [°C]
1,"Fc1ccc2c(c1)CC/C2=C/c1cccnc1 (as salt: hydrochloride) [Compound 5b, 3-[(Z)-(5-Fluoro-2,3-dihydro-1H-indane-1-ylidene)methyl]pyridine Hydrochloride]",245
2,"Fc1ccc2c(c1)CC/C2=C\c1ccncc1 (as salt: hydrochloride) [Compound 6a, 4-[(E)-(5-Fluoro-2,3-dihydro-1H-indane-1-ylidene)methyl]pyridine Hydrochloride]",224
3,"Fc1ccc2c(c1)CC/C2=C/c1ccncc1 (as salt: hydrochloride) [Compound 6b, 4-[(Z)-(5-Fluoro-2,3-dihydro-1H-indane-1-ylidene)methyl]pyridine Hydrochloride]",223
4,"Clc1ccc2c(c1)CC/C2=C\c1cccnc1 (as salt: hydrochloride) [Compound 7a, 3-[(E)-(5-Chloro-2.3-dihydro-1H-indane-1-ylidene)methyl]pyridine Hydrochloride]",234
5,"Clc1ccc2c(c1)CC/C2=C/c1cccnc1 (as salt: hydrochloride) [Compound 7b, 3-[(Z)-(5-Chloro-2,3-dihydro-1H-indane-1-ylidene)methyl]pyridine Hydrochloride]",238
6,"Clc1ccc2c(c1)CC/C2=C\c1ccncc1 (as salt: hydrochloride) [Compound 8a, 4-[(E)-(5-Chloro-2,3-dihydro-1H-indane-1-ylidene)methyl]pyridine Hydrochloride]",213
7,"Brc1ccc2c(c1)CC/C2=C\c1cccnc1 (as salt: hydrochloride) [Compound 9a, 3-[(E)-(5-Bromo-2,3-dihydro-1H-indane-1-ylidene)methyl]pyridine Hydrochloride]",241
8,"Brc1ccc2c(c1)CC/C2=C/c1cccnc1 (as salt: hydrochloride) [Compound 9b, 3-[(Z)-(5-Bromo-2,3-dihydro-1H-indane-1-ylidene)methyl]pyridine Hydrochloride]",243
9,"Brc1ccc2c(c1)CC/C2=C\c1ccncc1 (as salt: hydrochloride) [Compound 10a, 4-[(E)-(5-Bromo-2,3-dihydro-1H-indane-1-ylidene)methyl]pyridine Hydrochloride]",266
10,"COc1ccc2c(c1)CC/C2=C/c1cccnc1 (as salt: hydrochloride) [Compound 11b, 3-[(Z)-(5-Methoxy-2,3-dihydro-1H-indane-1-ylidene)methyl]pyridine Hydrochloride]",220
11,"Cc1cccc2c1CC/C2=C\c1cccnc1 (as salt: hydrochloride) [Compound 23a, 3-[(E)-(4-Methyl-2,3-dihydro-1H-indane-1-ylidene)methyl]pyridine Hydrochloride]",231
12,"Fc1ccc2c(c1)CC/C2=C\c1cccc2cnccc12 (as salt: hydrochloride) [Compound 30a, 5-[(E)-(5-Fluoro-2,3-dihydro-1H-indane-1-ylidene)methyl]isoquinoline Hydrochloride]",234
13,"Fc1ccc2c(c1)CC/C2=C/c1cccc2cnccc12 (as salt: hydrochloride) [Compound 30b, 5-[(Z)-(5-Fluoro-2,3-dihydro-1H-indane-1-ylidene)methyl]isoquinoline Hydrochloride]",201
14,"C(=C1/CCc2ccccc21)/c1cnc[nH]1 (as salt: hydrochloride) [Compound 42a, 5-[(E)-2,3-Dihydro-1H-indane-1-ylidenemethyl]-1H-imidazole]",148 to 151
15,"C(=C1/CCc2ccccc21)/c1ccncc1 (as salt: oxalate) [Compound 2a, 4-[(E)-2,3-Dihydro-1H-indane-1-ylidenemethyl]pyridine Oxalate]",167
16,"C(=C1\CCc2ccccc21)/c1cnc[nH]1 (as salt: oxalate) [Compound 42b, 5-[(Z)-2,3-Dihydro-1H-ind-1-ylidenemethyl]-1H-imidazolium oxalate]",196
17,"c1cncc(-c2ccc3cccc4c3c2CC4)c1 (as salt: salt) [Compound 50, 3-(1,2-Dihydroacenaphthylene-3-yl)pyridine]",208

# Molecular target: T2, human CYP11B2 (Homo sapiens, UniProt P19099)
# T2 sequence (P19099 25-503): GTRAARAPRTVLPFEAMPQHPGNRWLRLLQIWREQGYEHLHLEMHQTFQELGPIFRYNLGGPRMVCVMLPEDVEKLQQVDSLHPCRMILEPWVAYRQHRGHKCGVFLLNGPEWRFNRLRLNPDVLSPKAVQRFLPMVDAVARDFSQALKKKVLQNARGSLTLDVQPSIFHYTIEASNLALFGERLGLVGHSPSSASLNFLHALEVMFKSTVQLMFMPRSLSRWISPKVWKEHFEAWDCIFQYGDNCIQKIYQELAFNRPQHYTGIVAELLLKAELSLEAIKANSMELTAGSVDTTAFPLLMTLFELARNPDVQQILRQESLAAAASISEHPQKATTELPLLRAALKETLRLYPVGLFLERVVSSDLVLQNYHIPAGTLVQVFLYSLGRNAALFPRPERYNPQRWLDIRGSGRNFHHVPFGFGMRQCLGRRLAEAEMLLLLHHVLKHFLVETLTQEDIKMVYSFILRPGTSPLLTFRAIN
# Assay: Screening test in transgenic fission yeast (S. pombe PE1) expressing human CYP11B2
# Assay type: cell-based
# Design: expressed in transfected cells
# Details: S. pombe cells which express human CYP11B2; deoxycorticosterone substrate 100 nM; inhibitor 500 nM
# Experimental: 492.5 μl of this cell suspension was admixed with 5 μl of inhibitor solution (50 μM of the compound to be tested in ethanol or DMSO) and incubated at 32° C. for 15 min. Controls were admixed with 5 μl of ethanol. […] The test was quenched by extracting the sample with 500 μl of EtOAc. After centrifugation (10,000 g, 2 min), the EtOAc phase was removed and evaporated to dryness. […] The reaction of the substrate to form corticosterone was analyzed by HPTLC (see below).
# The quantification of the spots for the substrate deoxycorticosterone and the products corticosterone (and, if detectable, 18-hydroxycorticosterone and aldosterone) was effected with the related evaluation program AIDA. […] The calculation of the conversion rate was effected according to equation 1.
# The plate was developed twice with the mobile solvent chloroform:methanol:water (300:20:1). Unlabeled 11-deoxycorticosterone and corticosterone were applied as a reference for the CYP11B1 reaction. For the CYP11B2 reaction, 11-deoxycorticosterone, corticosterone, 18-hydroxycorticosterone and aldosterone were used as references. The detection of the unlabeled references was effected at 260 nm. Subsequently, imaging plates (BAS MS2340, for ^14C samples, Raytest, Straubenhardt, Germany) were exposed to the HPTLC plates for 48 h. The imaging plates were scanned with the phosphoimager system Fuji FLA 3000 (Raytest, Straubenhardt, Germany), and the steroids were quantified.
row,Compound,% Inhibition human hCYP11B2 [%]
1,"5-[(Z)-(5-Fluoro-2,3-dihydro-1H-indene-1-ylidene)methyl]-1H-imidazolium oxalate [Compound 47b]",58

# Molecular target: T3, bovine adrenal CYP11B (Bos taurus, UniProt P15150)
# T3 sequence (P15150 25-503): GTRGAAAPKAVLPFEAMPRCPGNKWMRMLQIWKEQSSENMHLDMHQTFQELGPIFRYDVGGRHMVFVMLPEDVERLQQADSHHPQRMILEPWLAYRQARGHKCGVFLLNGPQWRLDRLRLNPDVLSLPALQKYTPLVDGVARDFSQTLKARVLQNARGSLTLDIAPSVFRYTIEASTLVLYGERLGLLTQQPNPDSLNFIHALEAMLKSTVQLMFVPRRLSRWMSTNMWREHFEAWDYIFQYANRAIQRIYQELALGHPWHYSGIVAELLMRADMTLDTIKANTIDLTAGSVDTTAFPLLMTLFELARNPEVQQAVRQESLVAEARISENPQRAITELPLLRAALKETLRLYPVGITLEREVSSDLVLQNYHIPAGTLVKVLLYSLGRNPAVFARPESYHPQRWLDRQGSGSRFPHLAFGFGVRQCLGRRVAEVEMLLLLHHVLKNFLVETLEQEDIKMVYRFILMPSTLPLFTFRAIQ
# Assay: Percent inhibition of bovine CYP11B (adrenal mitochondria)
# Details: bovine adrenal mitochondria, 1 mg/ml protein; corticosterone substrate 200 μM; inhibitor 1 μM
# Experimental: Bovine adrenal glands obtained freshly after slaughtering were stored in ice cold Tris-sucrose buffer (0.25 M sucrose, 0.05 M Tris; pH 7.4) until processed. After removing the appending adipose tissue, the adrenal medulla was carefully separated from the adrenal cortex using scissors. The pieces of adrenal cortex were coarsely comminuted with scissors, washed with Tris-sucrose buffer, weighed and finely comminuted in the above buffer (2 ml per g of tissue) with a hand mixer. Thereafter, the tissue was homogenized with an Ultra-Turrax mixer. For separating coarse cell debris and the nuclei, the homogenizate was centrifuged twice for 15 min at 900 g and 4° C. The supernatant was subsequently centrifuged for 35 min at 11,000 g for recovering the mitochondrial fraction. For purifying the mitochondrial fraction, the precipitate was resuspended in Tri-sucrose buffer and again centrifuged at 11,000 g for 35 min. This washing step was performed two times in total. After the last centrifugation, the pellet was resuspended in Tris-sucrose buffer containing 0.001 M EDTA and frozen at −70° C.
# The substrate corticosterone was dissolved in methanol and diluted with Tris buffer to a final concentration of 200 μM. The inhibitors were also dissolved in methanol and diluted with buffer to a final concentration of 1 μM. […] Corticosterone (200 μM) was incubated with inhibitor (1 μM) and mitochondrial enzyme (0.5 mg/0.5 ml) with the addition of a regenerating system consisting of NADP^+ (1 mM), glucose-6-phosphate (7 mM) and glucose-6-Phosphate dehydrogenase (1 IU/0.5 ml). Up to 5 inhibitors per test could be incubated in duplicate. […] After preincubation for 5 minutes (30° C.; water bath), the reaction was started by adding mitochondrial suspension. […] The blind values were admixed with 250 μl of HCl before the enzyme was pipetted in. The steroids were separated off by shaking with 1 ml of ethyl acetate (10 min). After centrifugation (15,000 g, 10 min), 900 μl of the organic phase was shaken with 250 μl 1 N NaOH (10 min), and 800 μl of supernatant was again washed with 250 μl of buffer. […] 18-OH-corticosterone (retention time: 10 min) and corticosterone (retention time: 21 min) were separated. The height of the 18-OH-corticosterone peak was used for evaluation. The percent inhibition of the 18-hydroxylation of corticosterone by the inhibitors was based on the mediums of the control incubation, taking the blind values into account.
row,Compound,% Inhibition bovine bCYP11B [%]
1,"5-[(Z)-(5-Fluoro-2,3-dihydro-1H-indene-1-ylidene)methyl]-1H-imidazolium oxalate [Compound 47b]",64

# Same assay, conditions: read-out: % Inhibition bovine bCYP11B, bovine adrenal mitochondria, 1 mg/ml protein; corticosterone substrate 200 μM; inhibitor 1 μM
row,Compound,inhibition at 1 µM [%]
1,"CC(=O)N1CCN(c2ccc(OCC3COC(Cn4ccnc4)(c4ccc(Cl)cc4Cl)O3)cc2)CC1 (stereo not drawn) [Ketoconazole, reference compound]",78
